According to patent publication US8614218B2, “Fused bicyclic pyrimidines” (Bayer Intellectual Property GmbH, priority 2007, dated 2013):

Each compound was assayed on phospho-Akt (Ser473) (assay: Cellular PI3K/Akt pathway assay (phospho-Akt ELISA)). Settings: Homo sapiens, MCF7 cells, β-Heregulin stimulated, 48 h incubation.
Assay type: cell-based
Text: Cellular PI3K/Akt Pathway Assay
In order to study the cellular activity of the compounds according to the present invention, an Enzyme Linked Immunosorbent Assay (ELISA)-based assay has been used specific phospho-AKT. The assay is based on a Sandwich ELISA kit (PathScan™ Phospho-Akt1 (Ser473); Cell Signaling, USA; #7160). The ELISA Kit detects endogenous levels of phosphorylated Akt protein. A phospho-Akt (Ser473) antibody (Cell Signaling, USA; #9271) has been coated onto the microwells. After incubation with cell lysates, the coated antibody captures the phosphorylated Akt protein. Following extensive washing, Akt1 monoclonal antibody (Cell Signaling, USA; #2967) is added to detect the captured phospho-Akt1 protein. HRP-linked anti-mouse antibody (HRP: horseradish peroxidase; Cell Signaling, USA; #7076) is then used to recognize the bound detection antibody. HRP substrate (=3,3′,5,5′-tetramethylbenzidine (TMB); Cell Signaling, USA; #7160) is added to develop colour. The magnitude of optical density for this developed color is proportional to the quantity of phosphorylated Akt protein.
MCF7 cells (ATCC HTB-22) are seeded into 96 well fate bottom plates at a density of 10000 cells/well. 24 hours after seeding, the cells are serum starved using low-serum medium (IMEM media including 0.1% charcoal treated FCS (FCS: fetal calf serum)). After 24 hours 1 μl each of the compound dilutions (test compounds were dissolved as 10 mM solutions in dimethylsulfoxide (DMSO) and subsequently diluted) are added into each well of the 96 well plates and incubated for 48 h at 37° C. in a humidified atmosphere containing 5% CO2. To stimulate Akt phosphorylation, β-Heregulin (20 ng/ml β-HRG) is added in parallel to the compounds. Wells containing unstimulated control cells (no β-Heregulin stimulation) are incubated with or without the diluted compound. Wells containing untreated control cells (no compound) are filled with medium containing 0.5% v:v DMSO and are or are not stimulated with β-Heregulin.
Cells are harvested and lysed with brief sonification in 1× cell lysis buffer (20 mM Tris (pH7.5), 150 mM NaCl, 1 mM ethylene diaminetetraacetate (EDTA), 1 mM ethylene glycolbis(2-aminoethyl)-N,N,N′,N′-tetraacetic acid (EGTA), 1 vol % Triton X-100, 2.5 mM sodium pyrophosphate, 1 mM β-glycerolphosphate, 1 mM Na3VO4, 1 μg/ml leupeptin). The lysate is centrifuged for 10 min. at 4° C. and the supernatant is transferred to a new tube. 100 μl of sample diluent (0.1 vol % Tween-20, 0.1 vol % sodium azide in phosphate buffered saline (PBS)) are added to a microcentrifuge tube and 100 μl of cell lysate are transferred into the tube and vortexed. 100 μl of each diluted cell lysate are added to the appropriate ELISA well, and incubated overnight at 4° C. The plates are washed 4 times with 1× wash buffer (1 vol % tween-20, 0.33 vol % thymol, in PBS). Next 100 μl of detection antibody (Akt1 (2H10) monoclonal detection antibody; Cell Signaling, USA; #2967) are added to each well and incubation continued for 1 h at 37° C. The washing procedure is repeated between each step. 100 μl of secondary antibody (anti-mouse IgG HRP-linked antibody; Cell Signaling, USA; #7076) are added to each well and incubated for 30 min. at 37° C. Than, 100 μl of TMB substrate (0.05% 3,3′,5,5′ tetramethylbenzidine, 0.1% hydrogen peroxide, complex polypeptides in a buffered solution; Cell Signaling, USA; #7160) are added to each well and incubated for 30 min. at 25° C. Finally 100 μl of STOP solution (0.05 vol % α and β unsaturated carbonyl compound) are added to each well and the plate are shaked gently. The absorbance is measured at λ=450 nm (Wallac Victor2; Perkin Elmer, USA) within 30 min. after adding the STOP solution. The analysis of the data is performed using a statistical program (Excel; Microsoft, USA). Preferred compounds show an inhibitory activity towards Akt phosphorylation below 10 μM.

Row | Compound | IC50 [nM]
1 | CC(c1ccc(-c2nc3nccn3cc2-c2ccccc2)cc1)N1CCC(c2n[nH]c(-c3ccccn3)n2)CC1 (racemic) [Example 23, 6-phenyl-7-(4-{1-[4-(5-pyridin-2-yl-1H-1,2,4-triazol-3-yl)piperidin-1-yl]ethyl}phenyl)imidazo[1,2-a]pyrimidine] | < 1000
2 | Fc1cnc2nc(-c3ccc(CN4CCC(c5n[nH]c(-c6cnccn6)n5)CC4)cc3)c(-c3ccccc3)cn12 [Example 24, 3-fluoro-6-phenyl-7-(4-{[4-(5-pyrazin-2-yl-1,2,4-triazol-3-yl)piperidin-1-yl]methyl}phenyl)imidazo[1,2-a]pyrimidine] | < 1000
3 | Fc1cnc2nc(-c3ccc(CN4CCC(c5n[nH]c(-c6ncccn6)n5)CC4)cc3)c(-c3ccccc3)cn12 [Example 25, 3-fluoro-6-phenyl-7-(4-{[4-(5-pyrimidin-2-yl-1H-1,2,4-triazol-3-yl)piperidin-1-yl]methyl}phenyl)imidazo[1,2-a]pyrimidine] | < 1000
4 | Clc1cnn2cc(-c3ccccc3)c(-c3ccc(CN4CCC(c5n[nH]c(-c6ccccn6)n5)CC4)cc3)nc12 [Example 30, 3-Chloro-6-phenyl-5-(4-{[4-(5-pyridin-2-yl-1H-1,2,4-triazol-3-yl)piperidin-1-yl]methyl}phenyl)pyrazolo[1,5-a]pyrimidine] | < 1000
5 | Brc1cnn2cc(-c3ccccc3)c(-c3ccc(CN4CCC(c5n[nH]c(-c6ccccn6)n5)CC4)cc3)nc12 [Example 31, 3-Bromo-6-phenyl-5-(4-{[4-(5-pyridin-2-yl-1H-1,2,4-triazol-3-yl)piperidin-1-yl]methyl}phenyl)pyrazolo[1,5-a]pyrimidine] | < 1000
6 | N#Cc1cnn2cc(-c3ccccc3)c(-c3ccc(CN4CCC(c5n[nH]c(-c6ccccn6)n5)CC4)cc3)nc12 [Example 32, 6-Phenyl-5-(4-{[4-(5-pyridin-2-yl-1H-1,2,4-triazol-3-yl)piperidin-1-yl]methyl}phenyl)pyrazolo[1,5-a]pyrimidine-3-carbonitrile] | < 1000
7 | C#Cc1cnn2cc(-c3ccccc3)c(-c3ccc(CN4CCC(c5n[nH]c(-c6ccccn6)n5)CC4)cc3)nc12 [Example 33, 3-Ethynyl-6-phenyl-5-(4-{[4-(5-pyridin-2-yl-1H-1,2,4-triazol-3-yl)piperidin-1-yl]methyl}phenyl)pyrazolo[1,5-a]pyrimidine] | < 1000
8 | CCc1cnn2cc(-c3ccccc3)c(-c3ccc(CN4CCC(c5n[nH]c(-c6ccccn6)n5)CC4)cc3)nc12 [Example 34, 3-Ethyl-6-phenyl-5-(4-{[4-(5-pyridin-2-yl-1H-1,2,4-triazol-3-yl)piperidin-1-yl]methyl}phenyl)pyrazolo[1,5-a]pyrimidine] | < 1000
9 | Cc1ccnc(-c2nc(C3CCN(Cc4ccc(-c5nc6nccn6cc5-c5ccccc5)cc4)CC3)n[nH]2)c1 [Example 35, 7-[4-({4-[5-(4-Methylpyridin-2-yl)-1H-1,2,4-triazol-3-yl]piperidin-1-yl}methyl)phenyl]-6-phenylimidazo[1,2-a]pyrimidine] | < 1000
10 | Cc1cccc(-c2nc(C3CCN(Cc4ccc(-c5nc6nccn6cc5-c5ccccc5)cc4)CC3)n[nH]2)n1 [Example 36, 7-[4-({4-[5-(6-Methylpyridin-2-yl)-1H-1,2,4-triazol-3-yl]piperidin-1-yl}methyl)phenyl]-6-phenylimidazo[1,2-a]pyrimidine] | < 1000
11 | CCc1nc2nc(-c3ccc(CN4CCC(c5n[nH]c(-c6ccccn6)n5)CC4)cc3)c(-c3ccccc3)cn2n1 [Example 40, 2-Ethyl-6-phenyl-5-(4-{[4-(5-pyridin-2-yl-1H-1,2,4-triazol-3-yl)piperidin-1-yl]methyl}phenyl)[1,2,4]triazolo[1,5-a]pyrimidine] | < 1000
